The text below walks through data of patent US20240417428A1, “POLYPEPTIDE FOR INHIBITING TRPM8 AND USE THEREOF” (ZHEJIANG UNIVERSITY, priority 2021, published 2024).

Where a SMILES comes first, the peptide text is derived from it.

The target in assay [1] is TRPM8 (Mus musculus, UniProt Q8R4D5). Briefly: Whole-cell electrophysiological recording, menthol-activated TRPM8 in transfected HEK293T cells. The settings on record: whole-cell recording, menthol activation of TRPM8; read-out: half-inhibitory concentration (IC50) inhibiting TRPM8. In kind it is cell-based. Also on record: expressed in transfected cells; host or cells: HEK293T. How it is done:
(§1) HEK293T cells were cultured in Dulbecco's modified Eagle culture medium under a 37° C., 5% CO2 environment, 10% fetal bovine serum, penicillin (100 U/mL), and streptomycin ([…]) was needed to add into the culture medium. Transient transfection was conducted by using Lipo 2000 (Invitrogen) transfection kit and following the instruction manual.
(§2) Electrophysiological experiment recordings were performed on the cells within 24˜48 h of transient transfections. Specifically, single channel electrophysiological recordings were performed within 8 h after transfection.
(§3) Measurement of the cell currents was respectively performed in the whole-cell recording mode, inside-out recording mode or outside-out recording mode with a HEKA EPC10 amplifier. In the whole cell electrophysiological recordings, glass microelectrodes made of borosilicate material were fire-polished to a original electrode resistance of about 3-6 MΩ. Serial resistance was compensated by 60%. The whole cell electrophysiological recordings were performed at ±80 mV. For single channel electrophysiological recordings, glass microelectrodes were fire-polished to a higher resistance of 6-8 MΩ2. Current signal was sampled at 10 kHz and filtered at 2.9 kHz. Membrane potential of the cell membrane would be clamped at +80 mV. All electrophysiological recordings were performed at room temperature (22° C.) (the maximum variation is 1° C.). […]

The test system of assay [2] is CCI-induced static allodynia. In words: Chronic constriction injury (CCI) model of neuropathic pain: static allodynia. In kind it is in vivo. The settings on record: CCI rats. An excerpt:
Male Sprague Dawley rats (purchased from Shanghai SLAC Laboratory Animals, LLC, 7 weeks old at the beginning of the experiment, n=7-10 per treatment) were used. CCI status was formed according to the method of Bennett G J and Xie Y K (Pain 1988, 33:87-107). Rats were anesthetized by intraperitoneal injection of sodium pentobarbital. The left common sciatic nerve was made to be exposed in the middle of the thigh in a state deprived of adherent tissue, and 4-0 silk thread (Ethicon Inc.) was utilized around it and four passes were loosely ligated at intervals of approximately 1 mm. Sham surgery was performed in the same manner except for sciatic nerve ligation. CCI surgery was performed after 2-3 weeks as described in Field M J et al. (Pain 1999, 83:303-311) documented, static allodynia was evaluated by Von Frey Hairs (VFH). Before starting the experiment, the experimental animals were acclimatized to the grid bottom cage. […] Each VFH was pressed against the phasic paw for 6 seconds, or until a withdrawal response occurred. When one withdrawal response occurred, the experiment was repeated by pressing the VFH at a weaker pressure until no withdrawal response occurred. The minimum pressure required to induce a response was recorded as a withdrawal paw threshold (PWT). If the experimental animal responded below an innocuous 1.4 g VFH, it was determined to be in static allodynia. […]

Assay [3] deals with oxaliplatin-induced cold allodynia. In words: Oxaliplatin-induced cold allodynia, acetone evaporating cold test. In kind it is in vivo, mice. The settings on record: 3.5 μg/20 μL intraplantar, day 10 after oxaliplatin. How it is done:
Adult male CD1 mice (6-8 weeks old) were used as experimental animals for behavioral experiments and primary cultures of DRG neurons. Mice were raised in the condition of 12 h light/12 h dark of light cycle with adequate standard chow and water. All animal protocols were approved by the Institutional Animal Care and Use Committee (IACUC) of Zhejiang University.
All of mice were habituated to the behavioral testing environment for 1-to-2 hours in 2-to-3 days before the behavioral testing. Single intraperitoneal (i.p.) injection of oxaliplatin (6 mg/kg body weight) was given to generate chemotherapy-induced neuropathic pain. Neuropathic pain behaviors were tested about 10 days after oxaliplatin injection.
Acetone-induced evaporating cold test was used to assess the oxaliplatin-induced cold allodynia. 50 μL acetone was gently splashed to the hind-paw plantar of oxaliplatin-treated mice via a syringe attached with plastic tube. The time spent in withdrawing, flinching or licking the stimulated paw was recorded and blindly counted during 5 min after acetone treatment. The cold allodynia behavior of mice was respectively measured on day 10 pre- or post-treatment with oxaliplatin, Vehicle or 3.5 μg/20 μL DeC-1.2 was intraplantarly injected to assess its analgesic effect on oxaliplatin-induced allodynia.

Assay [4] addresses T1, TRPM4 (Mus musculus, UniProt Q7TN37, K1045A).
T1 construct: expressed in transfected cells; host or cells: HEK293T
Briefly: Electrophysiological recording, ligand activation of TRPM4 (TRPM4-K1045A). Type of assay: cell-based. How it is done:
as §1, §2, §3

In assay [5] the target is T2, Nav1.7 (Homo sapiens, UniProt Q15858).
T2 construct: expressed in transfected cells; host or cells: HEK293T
In words: Electrophysiological recording of Nav1.7 sodium current. Type of assay: cell-based. How it is done: as §1, §2, §3

T2 sequence (Q15858 whole entry): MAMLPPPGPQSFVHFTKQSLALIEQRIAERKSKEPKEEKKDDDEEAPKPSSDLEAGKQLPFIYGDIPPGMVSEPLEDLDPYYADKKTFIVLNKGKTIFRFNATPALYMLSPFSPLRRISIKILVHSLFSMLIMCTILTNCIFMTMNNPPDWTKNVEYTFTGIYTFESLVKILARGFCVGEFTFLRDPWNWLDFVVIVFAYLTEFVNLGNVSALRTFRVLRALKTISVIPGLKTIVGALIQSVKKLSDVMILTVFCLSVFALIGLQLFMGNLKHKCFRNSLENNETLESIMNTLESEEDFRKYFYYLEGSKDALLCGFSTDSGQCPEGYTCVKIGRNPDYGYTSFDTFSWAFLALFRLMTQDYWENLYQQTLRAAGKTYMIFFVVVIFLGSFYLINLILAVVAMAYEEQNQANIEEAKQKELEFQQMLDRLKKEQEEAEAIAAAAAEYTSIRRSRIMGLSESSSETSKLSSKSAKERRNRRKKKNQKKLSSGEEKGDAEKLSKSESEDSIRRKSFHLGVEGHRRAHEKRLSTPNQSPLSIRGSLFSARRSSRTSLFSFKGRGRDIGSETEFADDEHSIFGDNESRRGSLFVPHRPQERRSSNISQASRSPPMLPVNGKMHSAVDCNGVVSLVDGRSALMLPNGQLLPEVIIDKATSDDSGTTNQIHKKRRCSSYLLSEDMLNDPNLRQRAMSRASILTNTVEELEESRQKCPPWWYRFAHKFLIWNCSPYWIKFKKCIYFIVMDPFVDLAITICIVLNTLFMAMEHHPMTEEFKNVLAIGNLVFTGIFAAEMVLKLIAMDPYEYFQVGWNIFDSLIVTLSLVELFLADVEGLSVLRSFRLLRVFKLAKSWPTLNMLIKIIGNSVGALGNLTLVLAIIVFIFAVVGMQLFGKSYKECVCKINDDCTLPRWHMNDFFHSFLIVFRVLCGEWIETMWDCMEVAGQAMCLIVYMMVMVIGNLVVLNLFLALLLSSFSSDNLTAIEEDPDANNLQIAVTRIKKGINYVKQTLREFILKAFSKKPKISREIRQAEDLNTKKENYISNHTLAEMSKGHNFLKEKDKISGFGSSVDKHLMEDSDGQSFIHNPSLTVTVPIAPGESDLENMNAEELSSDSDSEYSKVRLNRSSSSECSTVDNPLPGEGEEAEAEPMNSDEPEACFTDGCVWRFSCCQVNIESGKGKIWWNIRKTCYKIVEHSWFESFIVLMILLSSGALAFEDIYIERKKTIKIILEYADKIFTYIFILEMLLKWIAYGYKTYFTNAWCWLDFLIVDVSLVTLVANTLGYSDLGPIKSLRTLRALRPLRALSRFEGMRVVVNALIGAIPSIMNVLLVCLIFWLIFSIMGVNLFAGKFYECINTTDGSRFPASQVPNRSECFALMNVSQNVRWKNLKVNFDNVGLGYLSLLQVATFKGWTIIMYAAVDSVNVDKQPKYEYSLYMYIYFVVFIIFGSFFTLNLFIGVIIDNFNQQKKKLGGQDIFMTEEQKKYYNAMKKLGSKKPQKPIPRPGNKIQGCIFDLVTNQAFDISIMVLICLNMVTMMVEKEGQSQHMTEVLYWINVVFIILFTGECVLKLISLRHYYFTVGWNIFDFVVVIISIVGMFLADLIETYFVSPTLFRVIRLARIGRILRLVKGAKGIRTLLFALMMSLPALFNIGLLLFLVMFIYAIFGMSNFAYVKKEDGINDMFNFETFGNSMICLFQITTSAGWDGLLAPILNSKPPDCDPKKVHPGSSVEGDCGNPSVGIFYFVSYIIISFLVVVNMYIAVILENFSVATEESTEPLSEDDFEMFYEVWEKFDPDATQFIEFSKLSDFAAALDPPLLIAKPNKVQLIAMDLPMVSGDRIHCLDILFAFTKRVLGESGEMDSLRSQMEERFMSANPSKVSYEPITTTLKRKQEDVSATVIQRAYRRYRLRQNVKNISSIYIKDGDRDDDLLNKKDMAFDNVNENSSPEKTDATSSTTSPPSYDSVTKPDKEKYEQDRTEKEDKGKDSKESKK
T1 sequence (Q7TN37 whole entry K1045A): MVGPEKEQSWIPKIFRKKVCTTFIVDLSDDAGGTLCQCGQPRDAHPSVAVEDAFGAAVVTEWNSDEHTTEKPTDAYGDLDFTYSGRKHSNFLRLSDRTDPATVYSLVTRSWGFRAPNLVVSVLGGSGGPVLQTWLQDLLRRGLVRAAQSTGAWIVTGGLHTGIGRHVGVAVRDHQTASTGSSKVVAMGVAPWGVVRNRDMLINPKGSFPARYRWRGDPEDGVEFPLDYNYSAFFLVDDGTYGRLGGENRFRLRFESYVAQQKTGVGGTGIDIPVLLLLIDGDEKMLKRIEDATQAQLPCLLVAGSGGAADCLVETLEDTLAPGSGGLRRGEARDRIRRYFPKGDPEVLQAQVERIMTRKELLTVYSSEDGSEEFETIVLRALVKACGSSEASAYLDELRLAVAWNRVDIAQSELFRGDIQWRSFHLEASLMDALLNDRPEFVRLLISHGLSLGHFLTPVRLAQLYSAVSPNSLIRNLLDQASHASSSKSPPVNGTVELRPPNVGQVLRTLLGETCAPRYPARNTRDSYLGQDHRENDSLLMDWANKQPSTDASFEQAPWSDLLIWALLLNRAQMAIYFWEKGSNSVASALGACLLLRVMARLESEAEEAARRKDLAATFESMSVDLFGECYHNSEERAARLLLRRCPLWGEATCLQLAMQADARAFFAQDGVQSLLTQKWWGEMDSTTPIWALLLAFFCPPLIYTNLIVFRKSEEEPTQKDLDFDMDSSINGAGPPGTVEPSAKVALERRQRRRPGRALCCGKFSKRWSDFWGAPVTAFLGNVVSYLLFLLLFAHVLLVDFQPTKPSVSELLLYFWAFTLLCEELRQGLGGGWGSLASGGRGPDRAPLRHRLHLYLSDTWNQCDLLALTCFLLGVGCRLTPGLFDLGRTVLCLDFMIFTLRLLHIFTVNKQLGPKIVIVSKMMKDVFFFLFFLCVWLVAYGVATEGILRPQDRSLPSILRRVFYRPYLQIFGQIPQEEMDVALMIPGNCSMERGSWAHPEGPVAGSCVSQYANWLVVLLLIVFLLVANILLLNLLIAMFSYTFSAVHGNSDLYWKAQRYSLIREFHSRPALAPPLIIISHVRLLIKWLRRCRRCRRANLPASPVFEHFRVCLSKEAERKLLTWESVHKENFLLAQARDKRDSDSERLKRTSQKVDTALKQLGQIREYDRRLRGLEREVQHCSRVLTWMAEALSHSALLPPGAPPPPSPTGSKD
TRPM8, sequence (Q8R4D5 whole entry): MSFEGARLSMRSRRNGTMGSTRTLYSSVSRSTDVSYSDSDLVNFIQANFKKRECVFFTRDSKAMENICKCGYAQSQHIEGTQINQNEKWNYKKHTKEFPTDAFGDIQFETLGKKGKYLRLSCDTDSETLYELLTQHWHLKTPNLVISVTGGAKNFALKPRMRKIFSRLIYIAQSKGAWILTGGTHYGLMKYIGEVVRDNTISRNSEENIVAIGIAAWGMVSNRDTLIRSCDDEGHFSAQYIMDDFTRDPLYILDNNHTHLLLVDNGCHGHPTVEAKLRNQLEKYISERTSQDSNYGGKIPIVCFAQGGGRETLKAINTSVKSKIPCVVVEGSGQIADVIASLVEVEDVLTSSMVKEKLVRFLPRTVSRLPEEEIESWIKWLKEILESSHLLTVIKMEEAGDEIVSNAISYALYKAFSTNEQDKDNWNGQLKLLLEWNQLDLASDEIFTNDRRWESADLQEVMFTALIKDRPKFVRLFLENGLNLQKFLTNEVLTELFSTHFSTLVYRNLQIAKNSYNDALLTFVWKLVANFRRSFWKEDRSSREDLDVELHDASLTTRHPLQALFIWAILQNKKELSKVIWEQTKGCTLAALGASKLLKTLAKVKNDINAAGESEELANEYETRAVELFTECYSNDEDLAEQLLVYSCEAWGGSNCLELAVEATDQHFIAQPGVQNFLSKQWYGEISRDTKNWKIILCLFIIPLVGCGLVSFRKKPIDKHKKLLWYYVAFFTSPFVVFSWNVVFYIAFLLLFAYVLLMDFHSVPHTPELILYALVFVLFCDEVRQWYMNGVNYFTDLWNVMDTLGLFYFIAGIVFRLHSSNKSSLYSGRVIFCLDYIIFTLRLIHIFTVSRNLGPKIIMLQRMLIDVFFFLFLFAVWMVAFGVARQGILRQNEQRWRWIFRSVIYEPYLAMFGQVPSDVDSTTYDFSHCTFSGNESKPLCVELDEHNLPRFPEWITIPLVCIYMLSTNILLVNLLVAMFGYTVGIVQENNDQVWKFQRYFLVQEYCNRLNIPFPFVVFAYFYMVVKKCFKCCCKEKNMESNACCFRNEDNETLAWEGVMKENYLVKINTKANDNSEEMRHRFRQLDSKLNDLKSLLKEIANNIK

As for `C[C@@H]1NC(=O)[C@H](CCCNC(=N)N)NC(=O)[C@H](CC(=O)O)NC(=O)[C@H](CCCNC(=N)N)NC(=O)[C@H](CCCNC(=N)N)NC(=O)[C@@H](N)CSSC[C@@H](C(=O)O)NC(=O)[C@H](CCCNC(=N)N)NC(=O)[C@H](CCC(N)=O)NC(=O)[C@H](CCCNC(=N)N)NC(=O)[C@H](Cc2ccc(O)cc2)NC(=O)[C@H](Cc2c[nH]cn2)NC(=O)[C@H](CCCNC(=N)N)NC1=O` [DeC-1.2, CRRDRARHYRQRC] (HELM PEPTIDE1{C.R.R.D.R.A.R.H.Y.R.Q.R.C}$PEPTIDE1,PEPTIDE1,1:R3-13:R3$$$V2.0; N-terminus and C-terminus assumed), the values for the IC50 in assay [1], in assay [4] and in assay [5] were 4.5 ± 3 nM, above 10 µM and above 100 µM, respectively. Besides, the “activity against static allodynia (von Frey hairs)” value in assay [2] is reported as “exhibited strong activity”. Further, in assay [3], the “cold pain behavior induced by acetone evaporation (acetone score)” value is reported as “significantly improved the cold pain behavior”. Besides, the “inhibition of Nav channels” value in assay [5] (Nav1.7) was “none of the TRP channels and Nav channels were inhibited”.
